Laboratory results: the supplement of paper PMC10307832

Legend:
Test in all cases: relative viability (nuclei count vs DMSO), 5 days (fraction); higher = more cells survive
Metformin + Palbociclib = compound: CN(C)C(=N)NC(=N)N [Metformin] + CC(=O)c1c(C)c2cnc(Nc3ccc(N4CCNCC4)cn3)nc2n(C2CCCC2)c1=O [Palbociclib] (partner 0.5 µM)
Procedure, shortened: (§1)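 After 5 days of treatment, lung cancer cells in 1536-well plates were fixed and stained in a single step (final 0.05% Triton X-100, 1% formaldehyde, 1 ug/ml Hoechst) and their nuclei counted on 4× images. Treatment had been applied by pin tool the day after seeding as one drug alone or as a fixed anchor-drug dose with five library-drug doses (not always all listed) in √10 steps. Relative viability is the nuclei count of treated wells divided by that of vehicle wells, and values are medians of duplicate plates.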

Apatinib + Navitoclax = compound: N#CC1(c2ccc(NC(=O)c3cccnc3NCc3ccncc3)cc2)CCCC1 [Apatinib] + CC1(C)CCC(c2ccc(Cl)cc2)=C(CN2CCN(c3ccc(C(=O)NS(=O)(=O)c4ccc(N[C@H](CCN5CCOCC5)CSc5ccccc5)c(S(=O)(=O)C(F)(F)F)c4)cc3)CC2)C1 [Navitoclax] (partner 0.5 µM)
Procedure, shortened: as §1

Apatinib + Linsitinib = compound: N#CC1(c2ccc(NC(=O)c3cccnc3NCc3ccncc3)cc2)CCCC1 [Apatinib] + C[C@]1(O)C[C@@H](c2nc(-c3ccc4ccc(-c5ccccc5)nc4c3)c3c(N)nccn32)C1 [Linsitinib] (partner 1 µM)
Procedure, shortened: as §1

Apatinib + Dasatinib = compound: N#CC1(c2ccc(NC(=O)c3cccnc3NCc3ccncc3)cc2)CCCC1 [Apatinib] + Cc1nc(Nc2ncc(C(=O)Nc3c(C)cccc3Cl)s2)cc(N2CCN(CCO)CC2)n1 [Dasatinib] (partner 0.075 µM)
Procedure, shortened: as §1

Q: What does the source list for NCI-H460?
A: relative viability (Metformin + Palbociclib; first compound 31.62 µM): 0.191; relative viability (Metformin + Palbociclib; first compound 100 µM): 0.249; relative viability (Metformin + Palbociclib; first compound 316.23 µM): 0.105; relative viability (Metformin + Palbociclib; first compound 1000 µM): 0.148; relative viability (Apatinib + Navitoclax; first compound 0.08 µM): 1.1; relative viability (Apatinib + Navitoclax; first compound 0.253 µM): 1.14; relative viability (Apatinib + Navitoclax; first compound 0.8 µM): 1.03; relative viability (Apatinib + Navitoclax; first compound 2.53 µM): 1.06; relative viability (Apatinib + Navitoclax; first compound 8 µM): 1.05; relative viability (Apatinib + Linsitinib; first compound 0.08 µM): 0.841; relative viability (Apatinib + Linsitinib; first compound 0.253 µM): 0.863; relative viability (Apatinib + Linsitinib; first compound 0.8 µM): 0.661; relative viability (Apatinib + Linsitinib; first compound 2.53 µM): 0.737; relative viability (Apatinib + Linsitinib; first compound 8 µM): 0.64; relative viability (Apatinib + Dasatinib; first compound 0.08 µM): 0.468; relative viability (Apatinib + Dasatinib; first compound 0.253 µM): 0.477; relative viability (Apatinib + Dasatinib; first compound 0.8 µM): 0.426; relative viability (Apatinib + Dasatinib; first compound 2.53 µM): 0.487; relative viability (Apatinib + Dasatinib; first compound 8 µM): 0.413
